Experiment [1] has as its system Acinetobacter baumannii Eurofins 1674627. The experiment is described as follows: MIC microdilution assay (Example 32). Format: cell-based. To be noted: Acinetobacter baumannii; A. baumannii Eurofins 1674627; 35±2° C. 18 to 20 hours; two values given; read-out: MIC. The protocol: (§1) Strain IDs starting with “ATCC” were acquired from the American Type Culture Collection (Manassas, VA), strain IDs starting with “Eurofins” were acquired from Eurofins (Herndon, VA), while strain IDs starting with “CDC” were acquired from the Centers for Disease Control and Prevention (Atlanta, GA). All strains were maintained as −80° C. frozen glycerol stocks. S. aureus and P. aeruginosa were grown overnight on Tryptic Soy Agar (TSA) plates at 35±2° C., ambient atmosphere, while S. pyogenes was grown overnight on TSA+5% defibrinated sheep blood at 35±2° C., 5% CO2. C. jejuni was grown for 48 hours on TSA+5% defibrinated sheep blood at 35±2° C., in a microaerophilic environment generated by CampyGen sachet. All fungal species (i.e. C. albicans and C. auris) were grown overnight on Sabouraud Dextrose Agar (SDA) plates at 35±2° C., ambient atmosphere.
(§2) Test article Compound 1 (batch #7G30A9.203) was stored at 4° C. The antibiotic Tobramycin and antifungal Amphotericin B were used as quality control (QC) compounds for the MIC assay. Stock solutions of 3.2 mg/mL Tobramycin (Sigma-Aldrich, cat #T1783-500MG) and 3.2 mg/mL Amphotericin B (CP Lab Chemicals, cat #TOK-A007-1G) were prepared in sterile ultrapure water.
(§3) For bacteria strains, a few colonies of each strain were collected with a sterile swab and used to make a McFarland 0.5 standard solution (approximately 1×10^8 CFU/mL) in sterile PBS. The McFarland was then diluted 1:180 in Cation Adjusted Muller-Hinton Broth (CAMHB) for S. aureus and P. aeruginosa. S. pyogenes McFarland was diluted 1:180 in CAMHB+5% defibrinated sheep blood, while C. jejuni McFarland was diluted 1:180 in CAMHB+5% laked horse blood. 90 μL of this inoculum was combined with 10 μL of the 10× test article in a 96-well plate for a final concentration of 1×.
(§4) Except for C. jejuni, all bacterial-strain MIC 96-well plates were incubated at 35±2° C. for 18 to 20 hours, ambient atmosphere. C. jejuni was incubated at 35±2° C. for 48 hours, under microaerophilic condition. All Candida MIC 96-well plates were incubated at 35±2° C. for 24 to 48 hours, ambient atmosphere, until growth in control wells were observed. After incubation, the 96-well plates were examined visually and on a spectrophotometer at absorbance OD650. MIC is defined as the lowest concentration of a compound in which no visible growth is observed.
In general terms: Broth dilution looks for growth in wells or tubes with falling amounts of substance.

The test system of experiment [2] is Pseudomonas aeruginosa ATCC 27853. The experiment can be described thus: MIC microdilution assay (Example 32). To be noted: Pseudomonas aeruginosa, ATCC27853; P. aeruginosa ATCC 27853 (quality control); CAMHB; 35±2° C. 18 to 20 hours; two values given; read-out: MIC. The format is cell-based. As for the experimental part:
as §1, §2, §3, §4

Experiment [3] relates to Pseudomonas aeruginosa Eurofins 1674623. The experiment can be described thus: MIC microdilution assay (Example 32). The format is cell-based. To be noted: Pseudomonas aeruginosa; P. aeruginosa Eurofins 1674623; CAMHB; 35±2° C. 18 to 20 hours; two values given; read-out: MIC. The protocol:
as §1, §2, §3, §4

Experiment [4] relates to Campylobacter jejuni CDC 0413. The experiment can be described thus: MIC microdilution assay (Example 32). Format: cell-based. The settings on record: Campylobacter jejuni, CDC0413; C. jejuni CDC 0413; CAMHB+5% laked horse blood; 35±2° C. 48 hours, microaerophilic; two values given; read-out: MIC. The protocol:
as §1, §2, §3, §4

Experiment [5] deals with Streptococcus pyogenes Eurofins 2065755. The experiment is described as follows: MIC microdilution assay (Example 32). The format is cell-based. The settings on record: Streptococcus pyogenes; S. pyogenes Eurofins 2065755; CAMHB+5% defibrinated sheep blood; 35±2° C. 18 to 20 hours; two values given; read-out: MIC. The protocol:
as §1, §2, §3, §4

The subject of experiment [6] is Pseudomonas aeruginosa CDC 0248. The experiment can be described thus: MIC microdilution assay (Example 32). The format is cell-based. To be noted: Pseudomonas aeruginosa, CDC0248; P. aeruginosa CDC 0248; CAMHB; 35±2° C. 18 to 20 hours; two values given; read-out: MIC. As for the experimental part: as §1, §2, §3, §4
The test system of the next experiment is P. aeruginosa ATCC 27853. The experiment is described as follows: MIC microdilution assay. The format is cell-based, Pseudomonas aeruginosa. To be noted: Pseudomonas aeruginosa, ATCC27853, CAMHB, 35±2° C. 18 to 20 hours, two values given, read-out: MIC. The protocol:
(§5) Strain numbers starting with “ATCC” were acquired from the American Type Culture Collection (Manassas, VA), while strain numbers starting with “CDC” were acquired from the Centers for Disease Control and Prevention (Atlanta, GA). All strains were maintained as −80° C. frozen glycerol stocks. S. aureus and P. aeruginosa were grown overnight on Tryptic Soy Agar (TSA) plates at 35±2° C., ambient atmosphere, while S. pyogenes was grown overnight on TSA+5% defibrinated sheep blood at 35±2° C., 5% CO2. All fungal species (i.e. C. albicans, C. auris and C. herbarum) were grown on Sabouraud Dextrose Agar (SDA) plates. C. herbarum was grown at 25±2° C. for 5 to 7 days, while all other fungal strains were grown at 35±2° C. overnight.
(§6) Test articles Compound 2 (batch #2G13A0.368) and Compound 23 (batch #2G17A0.372) were received and stored at 4° C. The antibiotic Tobramycin and antifungal Amphotericin B were used as quality control (QC) compounds for the MIC assay. Stock solutions of 3.2 mg/mL Tobramycin (Sigma-Aldrich, cat #T1783-500MG) and 3.2 mg/mL Amphotericin B (CP Lab Chemicals, cat #TOK-A007-1G) were prepared in sterile ultrapure water.
(§7) For bacteria strains, a few colonies of each strain were collected with a sterile swab and used to make a McFarland 0.5 standard solution (approximately 1×10^8 CFU/mL) in sterile PBS. The McFarland was then diluted 1:180 in Cation Adjusted Muller-Hinton Broth (CAMHB) for S. aureus and P. aeruginosa, and in […]+5% defibrinated sheep blood for S. pyogenes. 90 μL of this inoculum was combined with 10 μL of the 10× test article in a 96-well plate for a final concentration of 1×.
(§8) All bacterial-strain MIC 96-well plates were incubated at 35±2° C. for 18 to 20 hours, while all Candida MIC 96-well plates were incubated at 35±2° C. for 24 to 48 hours. C. herbarum MIC 96-well plates were incubated at 25±2° C. for 3 to 5 days, until growth was visible in the growth control wells. After incubation, the 96-well plates were examined visually and on a spectrophotometer at absorbance OD650. […]

In another experiment the test system is S. pyogenes ATCC 51339. The experiment can be described thus: MIC microdilution assay. Format: cell-based, Steptococcus pyogenes. The settings on record: broth +5% defibrinated sheep blood, 35±2° C. 18 to 20 hours, two values given. The protocol:
as §5, §6, §7, §8

In patent US12264170B2, “Antimicrobial organosilanes” (TOPIKOS SCIENTIFIC, INC., priority 2019, dated 2025) one finds MIC data, which are given here for 1 molecule.

The structures appear in SMILES notation. ≈ marks a conversion by molar mass, not a printed value. Read-outs that look alike come from different tables or passages of the source.

The term MIC denotes the smallest concentration in the dilution series that meets the test's criterion for growth inhibition.

Turning to `NC[C@H]1O[C@H](O[C@H]2[C@H](O)[C@@H](O[C@H]3O[C@H](CO)[C@@H](O)[C@H](N)[C@H]3O)[C@H](N)C[C@@H]2N)[C@H](N)C[C@@H]1O` [Tobramycin], the MIC in experiment [1] was 1 µg/mL (≈ 2.14 µM); in experiment [2], 0.25 µg/mL (≈ 0.535 µM); in experiment [3], greater than 32 µg/mL; in experiment [4], greater than 32 µg/mL; in experiment [5], 16 µg/mL (≈ 34.2 µM); in experiment [6] it was greater than 32 µg/mL. Also, the MIC in the experiment on P. aeruginosa ATCC 27853 worked out at 0.25 µg/mL (≈ 0.535 µM); in the experiment with S. pyogenes ATCC 51339 (S. pyogenes ATCC 51339), 32 µg/mL (≈ 68.4 µM); in the experiment with S. pyogenes ATCC 51339 (Streptococcus pyogenes, ATCC51339, S. pyogenes ATCC 51339, read-out: MIC), 16 µg/mL (≈ 34.2 µM).
